The values below come from patent US20110319384A1, “Pharmaceutical Compositions” (priority 2005, published 2011).

Data set [1] has as its system patients with PTSD.
Source text: To be included, patients had to be diagnosed with PTSD according to DSM-IV criteria. Patients with comorbid psychotic disorders or substance abuse problems were excluded. […] The dose was split between morning and night time so that the majority of the dose was taken at bedtime.
The primary efficacy endpoints were: (1) change from baseline to endpoint in the Clinician Administered PTSD Scale (CAPS) total score; and (2) the percentage of patients meeting PTSD diagnostic criteria at endpoint. […] Adverse events (AEs) and patient adherence were also evaluated. Forty-seven patients were included in each treatment group.
Data set [2] relates to patients with GAD. The settings on record: cited from earlier work.
Data set [3] concerns patients resistant to anti-depressant treatment. The settings on record: within 4 weeks; adjunct to anti-depressant therapy; cited from earlier work.
In data set [4] the test system is patients with treatment resistant major depression. Description: Example 24: augmentation of antidepressant therapy, quetiapine versus lithium, 56 days. Here is the method:
The study compared tolerability and efficacy. […] Lithium was initiated at 600 mg/day, and maintained over Week 1 and 2 and subsequently adjusted to attain a level of 0.8-1.2 mmol/L. Lithium levels were taken weekly.
A total of 20 patients were randomized to 1 of the 2 treatment groups. The study population included men and women aged 18-65 years, with a diagnosis of major depression according to DSM-IV, Hamilton Depression Rating Scale (HAM-D)≧20 and a Clinical Global […] (CGI) score ≧4.
Patients were evaluated at baseline and then on days 7, 14, 28, 42, and 56 using the HAM-D, Montgomery-Asberg […] (MADRS), SAS, and Widlocher Psychomotor Retardation Scale.

The test system of data set [5] is patients with GAD. The settings on record: cited from earlier work. The source holds these as a separate data set.
The mark [6] stands for this setting: add-on to antidepressant, mean doses quetiapine 430 mg/day, lithium 825 mg/day.

`CN[C@H]1CC[C@@H](c2ccc(Cl)c(Cl)c2)c2ccccc21` [sertraline+placebo, sertraline]: the “mean improvement (decrease) from baseline to endpoint in CAPS total score” value in data set [1] (8 weeks) was “about 53”. Also, the “patients still meeting PTSD diagnostic criteria” value in data set [1] (after 8 weeks of treatment, disparity not seen with LOCF analysis) was found to be 37%. In data set [1] (in vivo), the CGI-I scores entry was “significant increase”; the “mean HAM-D scores and CGI-S scores, baseline to endpoint” value was “decreased significantly”. Further, in data set [1] (of 59 in the study), the “patients that experienced at least one AE” value was 31 patients.
With `Fc1ccc([C@@H]2CCNC[C@H]2COc2ccc3c(c2)OCO3)cc1` [paroxetine], the percent remission in data set [2] (placebo 30%) is 70%. In addition, the relapse in data set [2] (relapse = increase in CGI-S score of at least 2 points to >=4, or withdrawal from lack of efficacy, placebo 39.9%) is 10.9%.
Turning to `[Li]` [lithium], the patients who respond in data set [3] was around 50%. Moreover, in data set [4] (add-on to antidepressant), the “Widlocher Psychomotor Retardation Scale mean baseline score” value is “about 22”, the “Widlocher Psychomotor Retardation Scale mean score after treatment” value is recorded as “about 15” and the “mean MADRS score after Day 7 up to Day 56 (end value)” value is “about 22”. In data set [4] (setting [6]), the “mean HAM-D score at Day 56” value is “about 15” and the “mean HAM-D score, start value of 'From Day 7 to 56'” value is on record as “about 28”. In addition, in data set [4] (after 56 days), the “patients in remission (HAM-D)” value was 40%, the “patients who responded (MADRS)” value came to 50% and the “patients who responded to treatment (HAM-D)” value is on record as 50%. Further, the “patients who achieved remission (MADRS)” value in data set [4] (at 56 days) was found to be 30%.
Regarding `COc1ccc(C(CN(C)C)C2(O)CCCCC2)cc1` (stereo not shown) [Venlafaxine XR, venlafaxine], in data set [5] (at 6 months, another long-term study), the “change in HAM-A total score compared to placebo” value is 5.4. The “difference in HAM-A total score” value in data set [5] (long-term study, s.d.=7.5) is given as 4.18 points.
